The subject of data set [1] is Rattus norvegicus. Nature of the data set: Antiinflammatory activity in rat assessed as inhibition of carrageenan-induced paw edema at 10 mg/kg , po and measured after 4 hrs of carrageenan addition relative to control. In kind it is functional. A general note: Carrageenan injected into the paw causes an acute inflammation.
Data set [2] concerns Mus musculus. Nature of the data set: Analgesic activity in albino mouse assessed as inhibition of acetic acid induced writhing at 10 mg/kg , po. The class given is functional. On the technique in general: In writhing tests, fewer writhes than in controls are read as antinociception.
Data set [3] deals with Prostaglandin G/H synthase 2 (Cavia porcellus, UniProt P70682). The data set is described as follows: Inhibition of COX2 in guinea pig blood assessed as reduction of LPS-induced PGE2 accumulation at 10 to 10000 nM preincubated with LPS followed by compound addition and incubated for 6 or 24 hrs by EIA method. The class given is tissue-based.
Prostaglandin G/H synthase 2 (Cavia porcellus, UniProt P70682), sequence (P70682 whole entry): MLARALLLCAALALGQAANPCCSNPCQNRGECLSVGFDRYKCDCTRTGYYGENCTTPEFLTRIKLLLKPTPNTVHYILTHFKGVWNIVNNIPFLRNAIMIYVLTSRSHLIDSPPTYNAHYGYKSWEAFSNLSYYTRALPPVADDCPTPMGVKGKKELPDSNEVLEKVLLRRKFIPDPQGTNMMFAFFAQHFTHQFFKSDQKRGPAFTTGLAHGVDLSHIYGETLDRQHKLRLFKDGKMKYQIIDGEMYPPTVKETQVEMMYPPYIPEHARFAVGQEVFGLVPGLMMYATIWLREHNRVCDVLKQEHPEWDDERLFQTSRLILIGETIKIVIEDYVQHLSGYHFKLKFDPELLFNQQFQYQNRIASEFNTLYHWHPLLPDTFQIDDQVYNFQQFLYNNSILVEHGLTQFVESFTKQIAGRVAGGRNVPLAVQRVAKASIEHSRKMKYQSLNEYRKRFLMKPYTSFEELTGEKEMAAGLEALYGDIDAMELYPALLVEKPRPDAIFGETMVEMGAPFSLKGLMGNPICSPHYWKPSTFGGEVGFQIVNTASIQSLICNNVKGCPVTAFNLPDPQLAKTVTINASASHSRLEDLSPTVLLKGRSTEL
For data set [4], the target named is Prostaglandin G/H synthase 2 (Oryctolagus cuniculus, UniProt O02768). Nature of the data set: Inhibition of COX2 in rabbit whole blood assessed as reduction of LPS-induced PGE2 accumulation at 10 to 10000 nM preincubated with LPS followed by compound addition and incubated for 6 or 24 hrs by EIA method. In kind it is tissue-based.
Prostaglandin G/H synthase 2 (Oryctolagus cuniculus, UniProt O02768), sequence (O02768 whole entry): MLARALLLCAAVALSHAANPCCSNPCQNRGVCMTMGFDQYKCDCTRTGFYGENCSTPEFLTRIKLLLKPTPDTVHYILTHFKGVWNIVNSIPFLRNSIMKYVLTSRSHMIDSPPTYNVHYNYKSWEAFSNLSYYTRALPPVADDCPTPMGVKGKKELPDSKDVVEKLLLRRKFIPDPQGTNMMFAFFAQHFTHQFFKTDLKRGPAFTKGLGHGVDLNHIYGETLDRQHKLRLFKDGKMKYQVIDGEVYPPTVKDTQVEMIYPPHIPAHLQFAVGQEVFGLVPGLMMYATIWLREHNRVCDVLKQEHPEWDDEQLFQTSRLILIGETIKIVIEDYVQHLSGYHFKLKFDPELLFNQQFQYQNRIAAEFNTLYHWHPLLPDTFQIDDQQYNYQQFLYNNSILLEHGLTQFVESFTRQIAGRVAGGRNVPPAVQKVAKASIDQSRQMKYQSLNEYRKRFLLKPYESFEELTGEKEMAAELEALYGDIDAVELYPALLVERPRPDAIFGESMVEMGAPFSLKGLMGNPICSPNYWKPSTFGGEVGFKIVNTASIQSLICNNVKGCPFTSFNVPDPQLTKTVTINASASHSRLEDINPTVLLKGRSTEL
The subject of data set [5] is Mus musculus. The data set is described as follows: Antiinflammatory activity in carrageenan-induced C57Bl/6 mouse model of inflammation assessed as inhibition of PGE2 accumulation in air pouch at 0.1 to 10 mg/kg , po pretreated with carrageenan for 20 hrs and followed by compound administration and measured after 4 hrs. The class given is functional. The settings on record: C57B1/6, po.

For the next data set, the target named is Tyrosinase (Homo sapiens, UniProt P14679). Nature of the data set: Inhibition of tyrosinase (unknown origin) assessed as reduction in melanin formation.
Tyrosinase, sequence (P14679 whole entry): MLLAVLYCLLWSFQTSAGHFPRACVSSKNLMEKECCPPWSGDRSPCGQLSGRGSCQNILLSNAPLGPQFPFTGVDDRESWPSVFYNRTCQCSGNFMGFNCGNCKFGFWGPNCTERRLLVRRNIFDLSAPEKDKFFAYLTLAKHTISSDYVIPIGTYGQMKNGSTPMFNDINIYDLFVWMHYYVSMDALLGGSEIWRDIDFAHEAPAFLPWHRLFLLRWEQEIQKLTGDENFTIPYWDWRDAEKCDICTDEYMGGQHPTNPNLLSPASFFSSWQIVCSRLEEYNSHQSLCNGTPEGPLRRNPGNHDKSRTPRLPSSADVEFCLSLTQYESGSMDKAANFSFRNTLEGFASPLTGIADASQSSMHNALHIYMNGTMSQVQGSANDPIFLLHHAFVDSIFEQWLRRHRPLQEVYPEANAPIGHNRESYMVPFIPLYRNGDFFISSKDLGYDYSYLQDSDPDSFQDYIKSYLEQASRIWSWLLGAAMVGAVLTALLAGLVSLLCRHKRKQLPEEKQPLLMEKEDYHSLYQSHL
Another data set has as its system MAC13. Nature of the data set: Antiproliferative activity against mouse MAC13 cells assessed as reduction in cell viability incubated for 3 days by MTT assay. The class given is functional, cell-based. The settings on record: MAC13, 72 h.
The test system of data set [6] is MAC16. Nature of the data set: Antiproliferative activity against mouse MAC16 cells assessed as reduction in cell viability incubated for 3 days by MTT assay. In kind it is functional, cell-based. Particulars: MAC16, 72 h. In general terms: Tetrazolium assays rely on reduction of a dye to a coloured formazan, in cell work by metabolically active cells.
In data set [7] the test system is MAC16. Nature of the data set: Antitumor activity in mouse MAC16 cells xenografted in NMRI mouse assessed as reduction in tumor weight administered after 2 days of transplantation and measured after 7 day. The class given is functional.
In data set [8] the target is Cyclin-dependent kinase 1/cyclin B1 (Homo sapiens, UniProt P06493). The data set is described as follows: Inhibition of CDK1/cyclinB (unknown origin). The class given is protein-complex assay.
Cyclin-dependent kinase 1/cyclin B1, sequence (P06493 whole entry): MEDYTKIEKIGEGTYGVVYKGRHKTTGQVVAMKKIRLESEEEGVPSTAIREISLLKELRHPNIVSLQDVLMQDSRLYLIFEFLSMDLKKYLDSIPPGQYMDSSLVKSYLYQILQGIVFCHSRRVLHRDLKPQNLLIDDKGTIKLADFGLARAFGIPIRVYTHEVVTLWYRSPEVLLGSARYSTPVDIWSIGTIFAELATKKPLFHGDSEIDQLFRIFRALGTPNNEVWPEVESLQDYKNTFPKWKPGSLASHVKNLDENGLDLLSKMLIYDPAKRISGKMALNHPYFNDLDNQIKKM
Cyclin-dependent kinase 1/cyclin B1, sequence (P14635 whole entry, further chain): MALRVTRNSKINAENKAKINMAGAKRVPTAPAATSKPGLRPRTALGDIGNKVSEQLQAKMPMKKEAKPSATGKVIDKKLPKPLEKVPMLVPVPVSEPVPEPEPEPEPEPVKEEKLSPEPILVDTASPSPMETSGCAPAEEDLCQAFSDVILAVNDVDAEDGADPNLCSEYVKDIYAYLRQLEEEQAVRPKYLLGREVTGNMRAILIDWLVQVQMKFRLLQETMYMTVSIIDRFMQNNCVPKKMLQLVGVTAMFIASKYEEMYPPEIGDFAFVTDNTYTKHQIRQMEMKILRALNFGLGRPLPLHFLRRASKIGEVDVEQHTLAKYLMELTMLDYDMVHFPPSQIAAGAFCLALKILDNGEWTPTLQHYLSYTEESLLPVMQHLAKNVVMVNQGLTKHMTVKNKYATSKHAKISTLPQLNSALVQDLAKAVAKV
The target in data set [9] is Cyclin-dependent kinase 5/CDK5 activator 1 (Homo sapiens, UniProt Q00535). Nature of the data set: Inhibition of CDK5/p25 (unknown origin). In kind it is protein-complex assay.
Cyclin-dependent kinase 5/CDK5 activator 1, sequence (Q00535 whole entry): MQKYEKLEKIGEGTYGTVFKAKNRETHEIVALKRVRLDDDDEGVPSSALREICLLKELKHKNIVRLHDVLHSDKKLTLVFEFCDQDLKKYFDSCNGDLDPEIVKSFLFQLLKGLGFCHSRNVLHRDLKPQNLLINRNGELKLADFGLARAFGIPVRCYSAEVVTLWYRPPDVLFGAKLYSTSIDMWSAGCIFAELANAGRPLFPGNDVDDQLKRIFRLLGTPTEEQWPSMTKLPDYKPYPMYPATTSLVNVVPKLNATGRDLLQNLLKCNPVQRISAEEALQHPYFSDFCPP
Cyclin-dependent kinase 5/CDK5 activator 1, sequence (Q15078 whole entry, further chain): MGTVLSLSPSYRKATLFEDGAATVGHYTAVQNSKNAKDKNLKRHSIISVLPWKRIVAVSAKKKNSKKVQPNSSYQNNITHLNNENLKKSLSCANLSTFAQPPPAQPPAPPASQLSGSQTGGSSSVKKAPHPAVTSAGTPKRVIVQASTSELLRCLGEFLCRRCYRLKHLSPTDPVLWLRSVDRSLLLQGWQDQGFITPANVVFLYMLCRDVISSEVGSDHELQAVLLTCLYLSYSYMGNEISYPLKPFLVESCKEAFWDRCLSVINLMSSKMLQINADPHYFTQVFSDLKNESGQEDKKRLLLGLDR
Data set [10] deals with Glycogen synthase kinase-3 (Homo sapiens, UniProt P49840+P49841). The data set is described as follows: Inhibition of GSK3alpha/beta (unknown origin). In kind it is protein assay.
In data set [11] the test system is Rattus norvegicus. The data set is described as follows: Antiinflammatory activity in Sprague-Dawley rat assessed as inhibition of carrageenan-induced paw edema at 3 mg/kg , po relative to control. The class given is functional.
Data set [12] is filed under the species Rattus norvegicus. The data set is described as follows: Antiarthritic activity in adjuvant-induced Sprague-Dawley rat. In kind it is functional.
Data set [13] concerns Rattus norvegicus. The data set is described as follows: Antiinflammatory activity in Sprague-Dawley rat assessed as inhibition of carrageenan-induced paw edema at 3 mg/kg , po incubated for 1 hr followed by carrageenan addition and measured after 4 hrs relative to control. In kind it is functional.
Data set [14] in a line: Ulcerogenicity in Sprague-Dawley rat assessed as gastric lesions at 30 mg/kg , po measured after 4 hrs. The settings on record: in vivo. The class given is toxicity, organism-based.
The target of the next data set is Phospholipase A2 (Apis mellifera, UniProt P00630). Nature of the data set: Inhibition of bee venom phospholipase A2.
Phospholipase A2, sequence (P00630 whole entry): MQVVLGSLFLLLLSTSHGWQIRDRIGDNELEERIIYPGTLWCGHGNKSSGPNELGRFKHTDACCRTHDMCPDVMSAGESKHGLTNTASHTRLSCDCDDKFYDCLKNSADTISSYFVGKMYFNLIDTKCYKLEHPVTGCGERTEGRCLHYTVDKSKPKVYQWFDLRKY
The next data set relates to MOLT-4F. The data set is described as follows: Antiproliferative activity against human MOLT4F cells assessed as reduction in cell viability incubated for 72 hrs by coulter counter method. The class given is functional, cell-based.
A further data set concerns CCRF-CEM. The data set is described as follows: Antiproliferative activity against human CEM cells assessed as reduction in cell viability incubated for 48 hrs by coulter counter method. The class given is functional, cell-based.
In another data set the test system is L1210. Nature of the data set: Antiproliferative activity against mouse L1210 cells assessed as reduction in cell viability incubated for 48 hrs by coulter counter method. The settings on record: L1210, 48 h. In kind it is functional, cell-based.
A further data set concerns MT4. Nature of the data set: Antiproliferative activity against human MT4 cells assessed as reduction in cell viability. The class given is functional, cell-based.
Another data set relates to Fusarium oxysporum. The data set is described as follows: Antifungal activity against Fusarium oxysporum CGMCC 3.2830 assessed as reduction in fungal cell growth incubated for 24 hrs by broth dilution method. The class given is functional. Particulars: CGMCC 3.2830, 24 h.
A further data set deals with Fusarium graminearum. Nature of the data set: Antifungal activity against Gibberella zeae CGMCC 3.2873 assessed as reduction in fungal cell growth incubated for 24 hrs by broth dilution method. In kind it is functional. The settings on record: CGMCC 3.2873, 24 h.
The next data set relates to Pyricularia oryzae. Nature of the data set: Antifungal activity against Pyricularia oryzae CGMCC 3.3283 assessed as reduction in fungal cell growth incubated for 24 hrs by broth dilution method. Particulars: CGMCC 3.3283, 24 h. In kind it is functional.
In the next data set the test system is Scedosporium boydii. Nature of the data set: Antifungal activity against Pseudallescheria boydii BMU04772 assessed as reduction in fungal cell growth incubated for 24 hrs by broth dilution method. The class given is functional. The settings on record: BMU04772, 24 h.
The subject of data set [15] is Mycobacterium tuberculosis. The data set is described as follows: Antimycobacterial activity against Mycobacterium tuberculosis H37Rv ATCC 27294 at 0.19 to 100 ug/ml incubated for 4 days by microplate alamar blue assay. Particulars: H37Rv ATCC 27294, 96 h. In kind it is functional, organism-based.
For data set [16], the system named is Bacillus subtilis. The data set is described as follows: Antibiofilm activity in Bacillus subtilis assessed as reduction in biofilm thickness at 40 ug/ml incubated for 3 days by confocal microscopy. On the set-up: scale not given: the % may be the effect or the level left. The class given is functional.
Data set [17] has as its system Bacillus subtilis. Nature of the data set: Antibacterial activity against Bacillus subtilis assessed as cell viability at 40 ug/ml incubated for 3 days by confocal microscopy. In kind it is functional.
A further data set relates to Escherichia coli. The data set is described as follows: Inhibition of swarming motility of Escherichia coli at 13 ug/cm2. In kind it is functional.
The subject of another data set is CYP3A4. The data set is described as follows: Inhibition of CYP3A4 in Sprague-Dawley rat liver microsome assessed as remaining activity by measuring 1'-hydroxylation of midazolam at 3 x 10^-5 M after 20 mins. The class given is ADME. The settings on record: liver microsomes, probe midazolam (1'-hydroxylation), read-out: INH.
Data set [18] is described as follows: Ulcerogenicity in Wistar rat assessed as gastric lesions by measuring ulcer severity index at 60 mg/kg , po measured after 17 hrs relative to control. In kind it is toxicity, organism-based. Particulars: in vivo.

In brackets after ≈: the same amount, converted by molar mass.

As a reminder, the inhibition in vivo is how much of the control response was suppressed. As a reminder, the IC50 is the concentration needed to halve the response being measured. The ED50 is the dose that gives a 50% effect, or the effect in half of the subjects. By MIC is commonly meant the smallest concentration in the dilution series that meets the test's criterion for growth inhibition.

As to `O=C(O)Cc1ccccc1Nc1c(Cl)cccc1Cl` [DICLOFENAC], the inhibition in vivo at 10 mg/kg in the data set with Rattus norvegicus [1] came to 78.6%; in the data set on Mus musculus [2] it was 67.7%.
As to `CS(=O)(=O)c1ccc(C2=C(c3ccc(F)c(F)c3)C(=O)OC2)cc1`, the IC50 in [3] was 0.6 µM; in data set [4], 2.8 µM. Moreover, the ED50 with Mus musculus [5] was found to be 0.5 mg/kg.
For `CC1=C(O)C(=O)CO1`, the concentration for half-maximal inhibition (IC50) on Tyrosinase is 50 µM.
Take `O=C1OC(c2ccccc2)C(Cl)=C1Cl` (stereo unspecified): the half-maximal inhibitory concentration (IC50) in the data set with MAC13 and in the data set on MAC16 [6] was 50 µM each time. Further, the “inhibition (INH)” value with MAC16 [7] turned out to be 24%.
On to `COc1ccc(C2OC(=O)C(O)=C2I)cc1OC` (stereo unspecified), for which the half-maximal inhibitory concentration (IC50) in data set [8], in data set [9] and in [10] was 10 µM each time.
Consider `CC1(C)OC(c2ccc(S(C)(=O)=O)cc2)=C(c2cc(F)cc(F)c2)C1=O`, for which the inhibition in vivo at 3 mg/kg with Rattus norvegicus [11] and in the data set with Rattus norvegicus [13] was 34% each time. Also, the ED50 in the data set listed under Rattus norvegicus [12] amounted to 0.03 mg/kg/day. In addition, in [14], the UI was 1.8.
`O=C1OC(O)C(/C=C/c2ccccc2)=C1F` (stereo unspecified) had an IC50 against Phospholipase A2 of 3 µM.
For `C/C(=C\c1occ2cc3oc(=O)ccc3cc12)C1=CC(=O)C(C)(C)O1`, the half-inhibitory concentration (IC50) in the data set on MOLT-4F, in the data set with CCRF-CEM, in the data set on L1210 and in the data set with MT4 was 40 to 79 µM throughout.
Turning to `COC(=O)C[C@]1(O)OC(=O)C(C)=C1C`, the MIC in the data set with Fusarium oxysporum is 2.5 µg/mL (≈ 12.5 µM); with Fusarium graminearum it was 2 µg/mL (≈ 9.99 µM); in the data set on Pyricularia oryzae, 1.25 µg/mL (≈ 6.24 µM); with Scedosporium boydii it was 0.15 µg/mL (≈ 0.749 µM).
`COc1ccc(/C=C2/C=C(c3ccc(Br)cc3)OC2=O)cc1OC` had a concentration for half-maximal inhibition (IC50) in [15] of 26.8 µg/mL (≈ 69.1 µM).
As for `CCCCC1=C(Br)/C(=C/Br)OC1=O`, the Activity in the data set on Bacillus subtilis [16] is reported as 25%; with Bacillus subtilis [17], 63%. Further, the “inhibition (INH)” value with Escherichia coli was 100%.
Turning to `COC(=O)C1=C(C)OC(C)(C)C1=O`, the activity at 20 min, 30 µM in the data set on CYP3A4 amounted to 57.1%.
On to `CC(C)Cc1ccc(C(C)C(=O)O)cc1` (stereo unspecified) [IBUPROFEN], for which the UI in [18] was found to be 0.9.
